According to PubChem BioAssay AID1259407 (Chemical Carcinogenesis Research Information System (CCRIS), 2018):
The source made the active and inactive calls. No rule for the calls is given here.

Tested on: CCRIS mutagenicity, Ames/micronucleus/aberration tests
Test: CCRIS mutagenicity studies
[1] = Test System: AMES SALMONELLA TYPHIMURIUM, Strain/Indicator: TA100, Metabolic Activation: NONE, Method: STANDARD PLATE
[2] = Test System: AMES SALMONELLA TYPHIMURIUM, Strain/Indicator: TA1535, Metabolic Activation: NONE, Method: STANDARD PLATE
[3] = Test System: AMES SALMONELLA TYPHIMURIUM, Strain/Indicator: TA1538, Metabolic Activation: NONE, Method: STANDARD PLATE
[4] = Test System: E. COLI, Strain/Indicator: WP2 UVRA, Metabolic Activation: NONE, Method: STANDARD PLATE

O=C(O)[C@@H]1CS[C@H](c2ccccc2O)N1C(=O)CCS
mutagenic call (Test System: AMES SALMONELLA TYPHIMURIUM, Strain/Indicator: TA98, Metabolic Activation: NONE, Method: STANDARD PLATE): inactive; negative | mutagenic call (Test System: AMES SALMONELLA TYPHIMURIUM, Strain/Indicator: TA98, Metabolic Activation: S-9, Method: STANDARD PLATE): inactive; negative | mutagenic call [1]: inactive; negative | mutagenic call (Test System: AMES SALMONELLA TYPHIMURIUM, Strain/Indicator: TA100, Metabolic Activation: S-9, Method: STANDARD PLATE): inactive; negative | mutagenic call [2]: inactive; negative | mutagenic call (Test System: AMES SALMONELLA TYPHIMURIUM, Strain/Indicator: TA1535, Metabolic Activation: S-9, Method: STANDARD PLATE): inactive; negative | mutagenic call (Test System: AMES SALMONELLA TYPHIMURIUM, Strain/Indicator: TA1537, Metabolic Activation: NONE, Method: STANDARD PLATE): inactive; negative | mutagenic call (Test System: AMES SALMONELLA TYPHIMURIUM, Strain/Indicator: TA1537, Metabolic Activation: S-9, Method: STANDARD PLATE): inactive; negative | mutagenic call [3]: inactive; negative | mutagenic call (Test System: AMES SALMONELLA TYPHIMURIUM, Strain/Indicator: TA1538, Metabolic Activation: S-9, Method: STANDARD PLATE): inactive; negative | mutagenic call (Test System: E. COLI, Strain/Indicator: WP2, Metabolic Activation: NONE, Method: STANDARD PLATE): inactive; negative | mutagenic call [4]: inactive; negative | mutagenic call (Test System: E. COLI, Strain/Indicator: WP2 UVRA, Metabolic Activation: S-9, Method: STANDARD PLATE): inactive; negative

FC(F)(Cl)Br
mutagenic call (Test System: AMES SALMONELLA TYPHIMURIUM, Strain/Indicator: TA98, Metabolic Activation: NONE, Method: DESICCATOR): inactive; negative | mutagenic call (Test System: AMES SALMONELLA TYPHIMURIUM, Strain/Indicator: TA100, Metabolic Activation: NONE, Method: DESICCATOR): inactive; negative | mutagenic call (Test System: AMES SALMONELLA TYPHIMURIUM, Strain/Indicator: TA100, Metabolic Activation: RAT, LIVER, S-9, AROCLOR 1254, Method: DESICCATOR): inactive; negative | mutagenic call (Test System: AMES SALMONELLA TYPHIMURIUM, Strain/Indicator: TA1535, Metabolic Activation: NONE, Method: DESICCATOR): active; positive | mutagenic call (Test System: AMES SALMONELLA TYPHIMURIUM, Strain/Indicator: TA1535, Metabolic Activation: RAT, LIVER, S-9, AROCLOR 1254, Method: DESICCATOR): active; positive | mutagenic call (Test System: AMES SALMONELLA TYPHIMURIUM, Strain/Indicator: TA1538, Metabolic Activation: RAT, LIVER, S-9, AROCLOR 1254, Method: DESICCATOR): inactive; negative | mutagenic call (Test System: MOUSE LYMPHOMA, Strain/Indicator: L5178Y (TK+/TK-), Metabolic Activation: NONE, Method: DESICCATOR): inactive; negative | mutagenic call (Test System: MOUSE LYMPHOMA, Strain/Indicator: L5178Y (TK+/TK-), Metabolic Activation: S-9, Method: DESICCATOR): inactive; negative

CCOc1ccc(NC(C)=O)cc1N
mutagenic call (Test System: AMES SALMONELLA TYPHIMURIUM, Strain/Indicator: TA98, Metabolic Activation: HAMSTER, LIVER, S-9, AROCLOR 1254, Method: STANDARD PLATE): active; positive | mutagenic call (Test System: AMES SALMONELLA TYPHIMURIUM, Strain/Indicator: TA98, Metabolic Activation: HAMSTER, LIVER, S-9, Method: STANDARD PLATE): active; positive | mutagenic call (Test System: AMES SALMONELLA TYPHIMURIUM, Strain/Indicator: TA98, Metabolic Activation: MOUSE, LIVER, S-9, AROCLOR 1254, Method: STANDARD PLATE): active; positive | mutagenic call (Test System: AMES SALMONELLA TYPHIMURIUM, Strain/Indicator: TA98, Metabolic Activation: MOUSE, LIVER, S-9, Method: STANDARD PLATE): active; positive | mutagenic call (Test System: AMES SALMONELLA TYPHIMURIUM, Strain/Indicator: TA98, Metabolic Activation: RAT, LIVER, S-9, AROCLOR 1254, Method: STANDARD PLATE): active; positive | mutagenic call (Test System: AMES SALMONELLA TYPHIMURIUM, Strain/Indicator: TA98, Metabolic Activation: RAT, LIVER, S-9, Method: STANDARD PLATE): active; positive | mutagenic call (Test System: AMES SALMONELLA TYPHIMURIUM, Strain/Indicator: TA100, Metabolic Activation: HAMSTER, LIVER, S-9, AROCLOR 1254, Method: STANDARD PLATE): active; positive | mutagenic call (Test System: AMES SALMONELLA TYPHIMURIUM, Strain/Indicator: TA100, Metabolic Activation: MOUSE, LIVER, S-9, AROCLOR 1254, Method: STANDARD PLATE): inactive; negative | mutagenic call (Test System: AMES SALMONELLA TYPHIMURIUM, Strain/Indicator: TA100, Metabolic Activation: MOUSE, LIVER, S-9, Method: STANDARD PLATE): inactive; negative | mutagenic call [1]: inactive; negative | mutagenic call (Test System: AMES SALMONELLA TYPHIMURIUM, Strain/Indicator: TA100, Metabolic Activation: RAT, LIVER, S-9, Method: STANDARD PLATE): inactive; negative | mutagenic call (Test System: AMES SALMONELLA TYPHIMURIUM, Strain/Indicator: TA1535, Metabolic Activation: HAMSTER, LIVER, S-9, AROCLOR 1254, Method: STANDARD PLATE): inactive; negative | mutagenic call (Test System: AMES SALMONELLA TYPHIMURIUM, Strain/Indicator: TA1535, Metabolic Activation: HAMSTER, LIVER, S-9, Method: STANDARD PLATE): inactive; negative | mutagenic call (Test System: AMES SALMONELLA TYPHIMURIUM, Strain/Indicator: TA1535, Metabolic Activation: MOUSE, LIVER, S-9, AROCLOR 1254, Method: STANDARD PLATE): inactive; negative | mutagenic call (Test System: AMES SALMONELLA TYPHIMURIUM, Strain/Indicator: TA1535, Metabolic Activation: MOUSE, LIVER, S-9, Method: STANDARD PLATE): inactive; negative | mutagenic call [2]: inactive; negative | mutagenic call (Test System: AMES SALMONELLA TYPHIMURIUM, Strain/Indicator: TA1535, Metabolic Activation: RAT, LIVER, S-9, AROCLOR 1254, Method: STANDARD PLATE): inactive; negative | mutagenic call (Test System: AMES SALMONELLA TYPHIMURIUM, Strain/Indicator: TA1535, Metabolic Activation: RAT, LIVER, S-9, Method: STANDARD PLATE): inactive; negative | mutagenic call (Test System: AMES SALMONELLA TYPHIMURIUM, Strain/Indicator: TA1537, Metabolic Activation: HAMSTER, LIVER, S-9, AROCLOR 1254, Method: STANDARD PLATE): active; positive | mutagenic call (Test System: AMES SALMONELLA TYPHIMURIUM, Strain/Indicator: TA1537, Metabolic Activation: HAMSTER, LIVER, S-9, Method: STANDARD PLATE): active; positive | mutagenic call (Test System: AMES SALMONELLA TYPHIMURIUM, Strain/Indicator: TA1537, Metabolic Activation: MOUSE, LIVER, S-9, AROCLOR 1254, Method: STANDARD PLATE): active; positive | mutagenic call (Test System: AMES SALMONELLA TYPHIMURIUM, Strain/Indicator: TA1537, Metabolic Activation: RAT, LIVER, S-9, AROCLOR 1254, Method: STANDARD PLATE): active; positive | mutagenic call (Test System: AMES SALMONELLA TYPHIMURIUM, Strain/Indicator: TA1538, Metabolic Activation: HAMSTER, LIVER, S-9, AROCLOR 1254, Method: STANDARD PLATE): active; positive | mutagenic call (Test System: AMES SALMONELLA TYPHIMURIUM, Strain/Indicator: TA1538, Metabolic Activation: HAMSTER, LIVER, S-9, Method: STANDARD PLATE): active; positive | mutagenic call (Test System: AMES SALMONELLA TYPHIMURIUM, Strain/Indicator: TA1538, Metabolic Activation: MOUSE, LIVER, S-9, AROCLOR 1254, Method: STANDARD PLATE): active; positive | mutagenic call [3]: inactive; negative | mutagenic call (Test System: AMES SALMONELLA TYPHIMURIUM, Strain/Indicator: TA1538, Metabolic Activation: RAT, LIVER, S-9, AROCLOR 1254, Method: STANDARD PLATE): active; positive | mutagenic call (Test System: AMES SALMONELLA TYPHIMURIUM, Strain/Indicator: TA1538, Metabolic Activation: RAT, LIVER, S-9, Method: STANDARD PLATE): active; positive | mutagenic call (Test System: E. COLI, Strain/Indicator: WP2 UVRA, Metabolic Activation: HAMSTER, LIVER, S-9, AROCLOR 1254, Method: STANDARD PLATE): inactive; negative | mutagenic call (Test System: E. COLI, Strain/Indicator: WP2 UVRA, Metabolic Activation: HAMSTER, LIVER, S-9, Method: STANDARD PLATE): inactive; negative | mutagenic call (Test System: E. COLI, Strain/Indicator: WP2 UVRA, Metabolic Activation: MOUSE, LIVER, S-9, AROCLOR 1254, Method: STANDARD PLATE): inactive; negative | mutagenic call (Test System: E. COLI, Strain/Indicator: WP2 UVRA, Metabolic Activation: MOUSE, LIVER, S-9, Method: STANDARD PLATE): inactive; negative | mutagenic call [4]: inactive; negative | mutagenic call (Test System: E. COLI, Strain/Indicator: WP2 UVRA, Metabolic Activation: RAT, LIVER, S-9, Method: STANDARD PLATE): inactive; negative
